Test results taken from patent publication US12465578B2, “Substituted alpha-ethyl phenylalkylamines” (Alexander Shulgin Research Institute, Inc., priority 2021, dated 2025).

Assay: In vitro metabolic stability: percent of compound remaining in human liver microsomes
Type: in vitro ADME
Settings: for Percent of Compound Remaining Over Time / Dunnett's Multiple Comparison Test Mean Diff. (percent remaining, 2C-B minus compound): human liver microsomes; for rate of metabolism compared with 2C-B: human liver microsomes, 15, 30, 45 and 60 minutes of incubation; for rate of metabolism compared with 2C-B / Dunnett's Multiple Comparison Test Mean Diff. (percent remaining, 2C-B minus compound): 2C-B as control drug; for Dunnett's Multiple Comparison Test Mean Diff. (percent remaining, 2C-B minus compound): one-way ANOVA with Dunnett's post-test
Method: A high-throughput assay is used to determine metabolic stability of disclosed compounds and undeuterated analogs thereof in various matrices, including human liver microsomes, using LCMS analysis to quantify the percent compound remaining after incubation. Briefly, the disclosed compound is mixed with liver microsomes and activated. Following this incubation, acetonitrile is added to terminate the reaction. Then, the samples are centrifuged and the supernatant is dried. The residue is reconstituted and analyzed using liquid chromatography-mass spectrometry. Pharmacokinetic parameters are calculated using a noncompartmental model. The half-life (t1/2) is estimated from the slope of the initial linear range of the logarithmic curve of compound remaining (%) versus time, assuming first order kinetics.
In one such assay of metabolic stability, percent of compound remaining was determined in human liver microsomes after 15, 30, 45, and 60 minutes of incubation, for 2C-B, 2C-B-2-OCD3 (compound I-B-31), and 2C-B-5-OCD3 (compound I-A-31).

Structure (SMILES) | Percent of Compound Remaining Over Time (0 minutes of incubation) [%] | rate of metabolism compared with 2C-B | Percent of Compound Remaining Over Time (15 minutes of incubation) [%] | Percent of Compound Remaining Over Time (30 minutes of incubation) [%] | Percent of Compound Remaining Over Time (45 minutes of incubation) [%] | Percent of Compound Remaining Over Time (60 minutes of incubation) [%] | Dunnett's Multiple Comparison Test Mean Diff. (percent remaining, 2C-B minus compound)
Cl.[2H]C([2H])([2H])Oc1cc(CCN)c(OC)cc1Br [Compound 2C-B-5-OCD3, 2-(4-bromo-2-methoxy-5-(methoxy-d3)phenyl)ethan-1-amine hydrochloride] | 100.0000 | metabolized more quickly than 2C-B | 96.2535 | 90.6402 | 90.7021 | 86.9011 | 14.31
Cl.[2H]C([2H])([2H])Oc1cc(Br)c(OC)cc1CCN [Compound 2C-B-2-OCD3, 2-(4-bromo-5-methoxy-2-(methoxy-d3)phenyl)ethan-1-amine hydrochloride] | 100.0000 | metabolized more quickly than 2C-B | 95.8357 | 91.9169 | 98.7307 | 91.6972 | 11.57
COc1cc(CCN)c(OC)cc1Br [Compound 2C-B, 2-(4-bromo-2,5-dimethoxyphenyl)ethanamine, reference compound] | 100.0000 |  | 104.3970 | 109.8740 | 105.1500 | 116.6050 | 
